For one data set, the system named is UV-induced tumors. The conditions noted are these: topical; UV induced mouse carcinogenicity model; cited from earlier work.
The test system of data set [1] is UV-induced skin tumor formation.

Molecules are shown by their SMILES.

`O=C(OOC(=O)c1ccccc1)c1ccccc1` [Benzoyl peroxide]: the “Formation of skin tumors compared to untreated or vehicle controls” value in the data set on UV-induced tumors is reported as “promote the formation of skin tumors”. For `Nc1ccc(S(=O)(=O)c2ccc(N)cc2)cc1` [Dapsone, bis(4-aminophenyl)sulfone], the “Effect on Unbiased Median Weeks to Tumor (in words)” value in data set [1] (600 RBU/week) is recorded as “increased the Unbiased Median Weeks to Tumor in a dose-dependent manner”. Besides, in data set [1] (UVR 600 RBU/week, sexes combined, calculated from Unbiased Median Week to Tumor and untreated 600/1200 RBU calibration), the “Tumor Potency Ratio (≧1 mm Tumor Size), Sexes Combined” value is on record as “reduced with dapsone application in a dose-dependent manner”. As for `CC1=C(/C=C/C(C)=C/C=C/C(C)=C/C(=O)O)C(C)(C)CCC1` [tretinoin], in the data set with UV-induced tumors, the “Formation of skin tumors compared to untreated or vehicle controls” value is reported as “promote the formation of skin tumors”.

These data come from patent publication US7399462B2, “Protectant for UV-induced skin damage” (QLT USA, Inc., priority 2002, dated 2008).
